Measurements taken from patent US20120021079A1, “Garcinia Mangostana L. and Iridoid Based Formulations” (priority 2010, published 2012).

How the values were obtained:
E. coli PQ37 [1] = assay type: cell-based; conditions: 250 ug mL^−1 iridoid plus 1.25 ug mL^−1 4NQO; blank = 1
Method: The SOS-chromotest in E. coli PQ37 was used to determine the potential for iridoids in noni fruit from French Polynesia to prevent primary DNA damage. […] Replicate samples were evaluated. […] Following incubation with the samples, 5-bromo-4-chloro-3-indolyl-β-D-galactopyranoside was added to the wells to detect β-galactosidase enzyme activity, which is induced during SOS repair of damaged DNA. The samples were again incubated for 90 minutes and the absorbances of the samples, blank and positive control were measured at 620 nm with a microplate reader. The β-galactosidase enzyme activity induction factor of each material was calculated by dividing the absorbance of the sample at 620 nm by that of the blank, while also correcting for cell viability.

E. coli PQ37 [2] = experiment: Anti-genotoxicity test (SOS-chromotest with 4NQO, Example Three); assay type: cell-based; conditions: for induction factor of 4NQO plus iridoid versus vehicle blank: 250 μg mL^−1 iridoid plus 1.25 μg mL^−1 4NQO; for Induction factor: 250 μg ml^−1 DAA or AA together with 1.25 μg ml^−1 4NQO, E. coli PQ37
Method: The primary DNA damage test was performed again, similar to the method described above. […] Induction factors were calculated in the same manner as described above.

[3] = Intra- and inter-day precision and stability assays of iridoids by HPLC-PDA; assay type: physicochemical; conditions: 3 consecutive days, HPLC sample solutions
Method: The limits of detection (LOD) and quantitation (LOQ) were defined as the lowest concentrations of analytes in a sample that can be detected and quantified. These LOD and LOQ limits were determined on the basis of signal-to-noise ratios (S/N) of 3:1 and 10:1, respectively. The working solutions of standards 1 and 2 for LOD and LOQ were prepared by diluting them sequentially. The intra- and inter-day precision assays, as well as stability tests were performed by following the method applied to the sample analysis for 3 consecutive days. Accuracy of the method (recovery) was assessed by the recovery percentage of iridoids 1 and 2 in the spiked samples. […] The recovery percentage was calculated using the ratio of concentration detected (actual) to those spiked (theoretical). Variation was evaluated by the relative standard deviation (RSD) of triplicate injections in the HPLC experiments.
The limits of detection (LOD) and quantitation (LOQ) were defined as the lowest concentrations of analytes in a sample that can be detected and quantified. These LOD and LOQ limits were determined on the basis of signal-to-noise ratios (S/N) of 3:1 and 10:1, respectively. […] Repeatability is the degree of agreement between results, when experimental conditions are maintained as constant as possible, and is expressed as the relative standard deviation (RSD) of replicates. […]

Row | SMILES | induction factor (mean±standard deviation) (E. coli PQ37 [1]) | induction factor of 4NQO plus iridoid versus vehicle blank (E. coli PQ37 [2]) | Induction factor (E. coli PQ37 [2]) | stability during investigation period [3]
1 | O=C(O)C1=CO[C@@H](O[C@@H]2O[C@H](CO)[C@@H](O)[C@H](O)[C@H]2O)[C@@H]2C(CO)=C[C@H](O)[C@H]12 [DAA, deacetylasperulosidic acid] | 0.98±0.02 | no statistical difference from that of the vehicle blank | 1.08 ± 0.12 | stable during investigation period
2 | CC(=O)OCC1=C[C@H](O)[C@@H]2C(C(=O)O)=CO[C@@H](O[C@@H]3O[C@H](CO)[C@@H](O)[C@H](O)[C@H]3O)[C@H]12 [AA, asperulosidic acid] | – | no statistical difference from that of the vehicle blank | 1.06 ± 0.03 | stable during investigation period
